Measured values as given in ChEMBL document CHEMBL1201862, “PubChem BioAssay data set” (2004).
Active and inactive are the calls of the source.

What was measured:
[1] = Counterscreen for AddAB inhibitors: absorbance-based bacterial cell-based high throughput dose response assay for inhibitors of bacterial viability. [Related pubchem assays (depositor defined):AID435030, AID449728, AID449731, AID488942, AID488955, AID488956]; assay type: functional
[2] = target: Serine/threonine-protein phosphatase PP1-alpha catalytic subunit (Homo sapiens, UniProt P62136); test: inhibition of protein phosphatase 1 activity – biochemical, fluorescence, dose response (AID 2394)
[3] = NIH3T3 cell viability loss – ATP luminescence, mouse fibroblasts, counter-screen, dose response (AID 2010); assay type: functional, cell-based;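 note: cells exposed to compound for about 90 hours before reading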
[4] = target: T1, Alkaline phosphatase, tissue-nonspecific isozyme (Homo sapiens, UniProt P05186); test: activation of tissue-nonspecific alkaline phosphatase – biochemical, TNAP isozyme, mouse IAP uHTS hits, selectivity assay for mouse IAP activator project, dose response (AID 488880); assay type: functional
T1 sequence (P05186 whole entry): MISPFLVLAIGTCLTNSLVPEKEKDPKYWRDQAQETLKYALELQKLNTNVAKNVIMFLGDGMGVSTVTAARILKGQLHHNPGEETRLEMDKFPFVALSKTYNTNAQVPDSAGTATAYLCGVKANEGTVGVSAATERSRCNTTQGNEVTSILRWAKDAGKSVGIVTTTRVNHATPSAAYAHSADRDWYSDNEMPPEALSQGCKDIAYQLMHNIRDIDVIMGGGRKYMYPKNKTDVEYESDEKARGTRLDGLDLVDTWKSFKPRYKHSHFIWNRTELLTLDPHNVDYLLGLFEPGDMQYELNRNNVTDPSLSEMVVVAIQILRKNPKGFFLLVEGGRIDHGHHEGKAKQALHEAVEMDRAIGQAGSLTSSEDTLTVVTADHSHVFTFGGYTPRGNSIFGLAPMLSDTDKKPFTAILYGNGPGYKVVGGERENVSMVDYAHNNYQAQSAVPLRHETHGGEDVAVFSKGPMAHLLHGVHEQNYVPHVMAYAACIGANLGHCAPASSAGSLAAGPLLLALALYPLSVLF

[5] = target: Keap1/Nrf2 (Homo sapiens, UniProt Q14145); test: disruptors of Keap1 binding to Nrf2 peptide – biochemical, fluorescence polarization, cherry-picked samples, dose response (AID 588683)
[6] = target: Dual specificity protein phosphatase 3 (Homo sapiens, UniProt P51452); test: SAR VHR1 Fluorescent Assay for In Vitro dose response studies. [Related pubchem assays (depositor defined):AID1654, AID1661, AID1878, AID1992, AID2004, AID2070, AID2085]; assay type: functional
[7] = target: T2, Tyrosine-protein phosphatase non-receptor type 7 (Homo sapiens, UniProt P35236); test: redox-active compounds inhibiting HePTP phosphatase – biochemical, fluorescence, mechanism study (AID 2068); assay type: functional
T2 sequence (P35236 whole entry): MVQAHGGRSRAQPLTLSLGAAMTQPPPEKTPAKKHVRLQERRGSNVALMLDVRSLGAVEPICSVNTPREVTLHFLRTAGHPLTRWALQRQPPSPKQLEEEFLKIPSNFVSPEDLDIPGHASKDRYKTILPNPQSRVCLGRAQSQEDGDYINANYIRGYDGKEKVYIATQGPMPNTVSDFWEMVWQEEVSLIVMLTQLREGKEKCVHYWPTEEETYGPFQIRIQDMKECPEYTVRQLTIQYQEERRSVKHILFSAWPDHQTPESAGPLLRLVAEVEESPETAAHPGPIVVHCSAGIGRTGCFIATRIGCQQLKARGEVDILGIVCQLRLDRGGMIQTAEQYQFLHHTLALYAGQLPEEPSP

[8] = target: T3, Tyrosine-protein phosphatase non-receptor type 22 (Homo sapiens, UniProt Q9Y2R2); assay type: functional;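 note: confirmatory dose-response retesting of primary uHTS hits against LYP; potency is for inhibition of phosphatase activity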
T3 sequence (Q9Y2R2 whole entry): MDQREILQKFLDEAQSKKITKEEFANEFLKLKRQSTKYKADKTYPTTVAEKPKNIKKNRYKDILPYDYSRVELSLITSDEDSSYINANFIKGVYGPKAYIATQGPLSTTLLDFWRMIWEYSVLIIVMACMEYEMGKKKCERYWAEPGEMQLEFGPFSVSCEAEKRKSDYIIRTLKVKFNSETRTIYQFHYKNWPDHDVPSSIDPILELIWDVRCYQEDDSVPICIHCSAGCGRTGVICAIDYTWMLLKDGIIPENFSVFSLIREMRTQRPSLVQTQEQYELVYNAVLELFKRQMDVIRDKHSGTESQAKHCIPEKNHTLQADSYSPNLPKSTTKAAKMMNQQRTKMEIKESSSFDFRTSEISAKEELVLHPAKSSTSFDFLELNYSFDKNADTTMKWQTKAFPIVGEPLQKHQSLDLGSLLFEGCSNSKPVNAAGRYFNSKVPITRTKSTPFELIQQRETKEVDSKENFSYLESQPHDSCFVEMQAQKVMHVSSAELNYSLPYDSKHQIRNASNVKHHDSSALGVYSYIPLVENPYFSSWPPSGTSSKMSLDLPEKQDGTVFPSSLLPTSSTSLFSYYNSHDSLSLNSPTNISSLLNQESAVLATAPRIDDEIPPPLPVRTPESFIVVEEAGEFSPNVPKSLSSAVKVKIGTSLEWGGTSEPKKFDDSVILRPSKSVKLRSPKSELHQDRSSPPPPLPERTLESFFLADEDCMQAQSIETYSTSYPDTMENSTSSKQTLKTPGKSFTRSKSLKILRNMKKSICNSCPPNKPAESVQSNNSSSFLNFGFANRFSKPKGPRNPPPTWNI

Dual specificity protein phosphatase 3, sequence (P51452 whole entry): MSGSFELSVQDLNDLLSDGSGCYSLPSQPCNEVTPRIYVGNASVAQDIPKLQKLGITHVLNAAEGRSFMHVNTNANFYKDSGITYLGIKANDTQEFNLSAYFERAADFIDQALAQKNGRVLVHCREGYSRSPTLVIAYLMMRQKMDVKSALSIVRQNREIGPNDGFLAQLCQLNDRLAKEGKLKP
Keap1/Nrf2, sequence (Q16236 whole entry): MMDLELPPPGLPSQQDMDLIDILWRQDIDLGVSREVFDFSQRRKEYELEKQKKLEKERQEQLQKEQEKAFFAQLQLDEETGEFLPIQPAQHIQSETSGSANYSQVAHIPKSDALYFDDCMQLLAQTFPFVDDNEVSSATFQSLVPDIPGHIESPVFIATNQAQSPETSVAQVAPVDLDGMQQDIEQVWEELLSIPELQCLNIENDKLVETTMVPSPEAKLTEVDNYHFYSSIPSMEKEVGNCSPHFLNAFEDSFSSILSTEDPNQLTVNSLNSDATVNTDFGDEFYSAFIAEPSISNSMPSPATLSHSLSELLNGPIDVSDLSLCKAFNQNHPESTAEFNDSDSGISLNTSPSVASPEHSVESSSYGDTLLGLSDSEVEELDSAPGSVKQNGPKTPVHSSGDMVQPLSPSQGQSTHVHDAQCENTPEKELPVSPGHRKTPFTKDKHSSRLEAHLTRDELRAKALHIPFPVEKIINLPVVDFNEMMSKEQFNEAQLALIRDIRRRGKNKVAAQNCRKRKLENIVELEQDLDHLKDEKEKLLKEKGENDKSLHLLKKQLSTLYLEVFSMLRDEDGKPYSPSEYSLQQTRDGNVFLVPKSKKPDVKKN
Keap1/Nrf2, sequence (Q14145 whole entry): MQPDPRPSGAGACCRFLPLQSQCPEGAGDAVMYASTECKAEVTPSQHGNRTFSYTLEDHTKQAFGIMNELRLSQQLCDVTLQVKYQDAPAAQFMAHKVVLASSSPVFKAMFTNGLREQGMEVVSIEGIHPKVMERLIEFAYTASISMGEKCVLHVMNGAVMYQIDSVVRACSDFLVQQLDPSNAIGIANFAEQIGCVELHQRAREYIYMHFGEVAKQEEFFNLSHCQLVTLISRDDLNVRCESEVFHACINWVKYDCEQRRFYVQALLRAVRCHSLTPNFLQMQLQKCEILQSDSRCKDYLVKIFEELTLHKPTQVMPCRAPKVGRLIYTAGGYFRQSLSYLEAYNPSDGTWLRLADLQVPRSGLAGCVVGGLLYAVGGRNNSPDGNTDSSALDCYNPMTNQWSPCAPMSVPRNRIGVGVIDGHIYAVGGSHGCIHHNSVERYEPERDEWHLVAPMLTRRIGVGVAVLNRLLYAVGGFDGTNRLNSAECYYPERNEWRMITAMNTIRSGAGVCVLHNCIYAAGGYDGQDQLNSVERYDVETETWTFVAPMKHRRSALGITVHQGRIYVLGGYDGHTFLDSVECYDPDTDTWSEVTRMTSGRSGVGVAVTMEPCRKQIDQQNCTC
Serine/threonine-protein phosphatase PP1-alpha catalytic subunit, sequence (P62136 whole entry): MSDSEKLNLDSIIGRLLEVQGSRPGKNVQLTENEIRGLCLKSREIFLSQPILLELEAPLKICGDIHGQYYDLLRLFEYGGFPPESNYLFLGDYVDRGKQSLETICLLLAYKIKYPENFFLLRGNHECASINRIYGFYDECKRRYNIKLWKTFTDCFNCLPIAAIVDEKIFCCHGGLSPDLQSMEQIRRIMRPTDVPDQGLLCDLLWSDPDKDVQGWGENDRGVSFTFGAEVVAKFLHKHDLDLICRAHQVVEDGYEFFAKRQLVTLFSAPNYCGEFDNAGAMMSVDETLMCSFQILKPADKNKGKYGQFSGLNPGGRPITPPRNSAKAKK

Which IC50 [1] does the source give for `O=C1c2ccccc2C(=O)c2[nH]c(O)nc21` here?
The IC50 was > 119 µM (inactive).

With `CCOC(=O)C1=C(C)OC2(O)c3ccccc3C(=O)C12O` (stereo not drawn) as the molecule, how does the IC50 [2] read?
Its IC50 is 49 µM (not active).

With `COC(=O)c1cc(C)nc2c1C(=O)C(=O)C=C2N1CCOCC1` as the molecule, how does the EC50 [3] read?
Its EC50 is > 16 µM (not active).

With `NS(=O)(=O)c1cc(C(=O)NC2CCSc3ccccc32)ccc1Cl` (stereo not drawn) as the molecule, how does the EC50 [4] read?
Its EC50 is 68.1 µM (active).

What about the AC50 [5] of the same molecule?
The AC50 was > 52 µM (inactive).

And the IC50 [6]?
The IC50 was 0.065 µM (active).

What about the IC50 [7] of the same molecule?
Its IC50 is 0.066 µM (active).

With `N#Cc1c(N2CCCC2)nc(N)c2c(N)nc(N3CCCC3)cc12` as the molecule, how does the IC50 [8] read?
Its IC50 is > 79.4 µM (inactive).
